Data set [1] concerns tobacco budworm (TBW), Heliothis virescens. Briefly: Bioassay: injection into the abdomen of fifth instar tobacco budworm larvae, paralysis. The class given is in vivo. As to conditions: probit regression. How it is done: Whole venom was isolated by known techniques from the spider, Calisoga. The whole venom, or peptides purified therefrom, were dissolved in sterile buffered physiological saline. For testing and characterization purposes, venom and toxins were administered by injection into the abdomen of fifth instar larvae of the tobacco budworm (TBW), Heliothis virescens. Control larvae were injected with an equal volume of saline. After treatment, the insects were placed individually in Petri dishes, with food, and observed.
Insects that could not right themselves within thirty seconds of being placed on their backs or side were considered paralyzed. Fifty percent paralytic dose (PD50) values were calculated by probit regression (see Example 2). Raymond, M., Ser. Ent. med et Parasitol, 22(2), 117-121 (1985).
Whole venom from a spider, Calisoga sp. (Aranae: Nemesiidae), was dissolved in the desired volume of sterile, buffered physiological saline. Samples were administered by injection into the abdomen of the fifth instar larvae of the tobacco budworm, Heliothis virescens, as previously described. Control larvae were injected with equal volumes of saline.

The subject of a further data set is Balb-C mice. Briefly: Mammalian toxicity by intraperitoneal injection in mice. The class given is in vivo. Conditions: male Balb-C mice, 50 micrograms per mouse (~2 mg/kg), up to 120 hours after treatment. How it is done:
Peptide A was tested for mammalian toxicity by intraperitoneal injection in mice. Two male Balb-C mice (~25 grams each) were injected with peptide A in physiological saline, at a dose of 50 micrograms per mouse (~2 mg/kg). Two control mice were injected with an equal volume of saline carrier. The mice were observed continuously for 1.5 hours, and periodically thereafter.

The subject of data set [2] is Heliothis virescens larvae. Conditions: toxin secreted in the course of infection by recombinant baculovirus; natural host; cited from earlier work.
For a further data set, the system named is Manduca sexta larvae. As to conditions: toxin secreted in the course of infection by recombinant baculovirus; unnatural host; cited from earlier work.

“peptide B (CISARYPCSNSKDCCSGNCGTFWTCFIRKDPCSKECLAP)”: in data set [1], the “PD50 95% confidence interval” value is 1.72 to 8.0 µg/g and the “PD50 (fifty percent paralytic dose)” value is 3.7 µg/g.
As to “peptide A (CISARYPCSNSKDCCSGNCGTFWTCYIRKDPCSKECLAP)”, the “mammalian toxicity: effects observed” value in the data set with Balb-C mice was “No effects were noted”. In data set [1], the “PD50 95% confidence interval” value was in the range of 1.70 to 3.22 µg/g and the “PD50 (fifty percent paralytic dose)” value was found to be 2.37 µg/g.

B1: AaIT: scorpion peptide insect toxin expressed from a recombinant baculovirus (McCutchen et al. 1991) (protein, UniProt P01497 19-88, looked up)
Beta-insect excitatory toxin 1: KKNGYAVDSSGKAPECLLSNYCNNECTKVHYADKGYCCLLSCYCFGLNDDKKVLEISDTRKSYCDTTIIN
Take B1: the “effect on larvae (paralysis)” value (in data set [2]; in the data set on Manduca sexta larvae) was “caused paralysis” in each case.

(Values after patent publication US5688764A, “Insecticidal peptides from spider venom” (NPS Pharmaceuticals, Inc., priority 1995, dated 1997).)
